In US20260083125A1, “METHODS FOR MANAGING HERBICIDE VAPORIZATION” (AgQuam R&D, LLC, priority 2016, published 2026):

Assays:
Corn = test: Greenhouse study for weed control, corn; assay type: in vivo; conditions: Glyphosate 0.375 lb/acre; AMS 17 lb/100 gal; NIS, AQ 284, AQ 268 […] v/v; INTERLOCK 4 fl oz/acre
Description: (§1) A greenhouse study was conducted to test the efficacy of the AQ 284 combination water conditioning adjuvant and drift reduction composition compared to the commercial standard (INTERLOCK). Greenhouse research was conducted with individual plants growing in 3×3×3 inch pots. Greenhouse treatments were applied with a track sprayer using an 8002 E single nozzle applying 20 gpa.

Sunflower = test: Greenhouse study for weed control, sunflower; assay type: in vivo; conditions: Glyphosate 0.375 lb/acre; AMS 17 lb/100 gal; NIS, AQ 284, AQ 268 […] v/v; INTERLOCK 4 fl oz/acre
Description: as §1

Wheat = test: Greenhouse study for weed control, wheat; assay type: in vivo; conditions: Glyphosate 0.375 lb/acre; AMS 17 lb/100 gal; NIS, AQ 284, AQ 268 […] v/v; INTERLOCK 4 fl oz/acre
Description: as §1

Corn, Sunflower, Wheat = test: Greenhouse study for weed control, average of corn, sunflower and wheat; assay type: in vivo; conditions: Glyphosate 0.375 lb/acre; AMS 17 lb/100 gal; NIS, AQ 284, AQ 268 […] v/v; INTERLOCK 4 fl oz/acre
Description: as §1

[1] = Lecithin addition to sulfuric acid, urea sulfate and AQ 216 (lecithin stability); assay type: physicochemical; conditions: for Notes (result of lecithin addition): on addition
Text: Lecithin is known to be unstable in a sulfuric acid environment. […] For each reaction with urea sulfate and AQ 216, the urea sulfate was mixed thoroughly or AQ 216 was mixed thoroughly, before the addition of the lecithin composition.

[2] = lecithin composition AIRLINK 50 mL
[3] = lecithin composition LI 700 50 mL
[4] = lecithin composition LIBERATE 50 mL

Row | Structure (SMILES) | Corn % Control 18 Days After Application (Corn) | Sunflower % Control 18 Days After Application (Sunflower) | Wheat % Control 18 Days After Application (Wheat) | Average % Control 18 Days After Application (Corn, Sunflower, Wheat) | reaction with lecithin compositions ([1]; 50 mL of each of the lecithin compositions, equivalent amount of sulfuric acid (3 mL)) | Time 1 hour [1, 2] | Time 12 Hours [1, 2] | Notes (result of lecithin addition) ([1]; lecithin composition AIRLINK 50 mL, 3 mL sulfuric acid or 6 mL urea sulfate / AQ 216) | Time 1 hour [1, 3] | Time 12 Hours [1, 3] | Notes (result of lecithin addition) [1, 3] | Time 1 hour [1, 4] | Time 12 Hours [1, 4] | Notes (result of lecithin addition) [1, 4]
1 | O=C(O)CNCP(=O)(O)O [Glyphosate, N-phosphonomethylglycine] | 10.0% | 15.0% | 15.0% | 13.3% |  |  |  |  |  |  |  |  |  | 
2 | O=S(=O)(O)O [Sulfuric Acid] |  |  |  |  | forming a precipitate | More precipitate | More precipitate | Dark Precipitate | More precipitate | More precipitate | Dark Precipitate | More precipitate | More precipitate | Dark Precipitate
